In brackets after ≈: the same amount, converted by molar mass.
Tests used:
Tagia sp. = conditions: for NOEC: chronic/long-term, duration: 8 weeks
Folsomia candida = conditions: chronic/long-term; duration: 28 days
Cyprinus carpio = conditions: acute; duration: 96 hours; mortality
Typhlodromus pyri = assay: LR50; higher = less toxic; conditions: not reported; mortality
Colinus virginianus = conditions: acute, oral, mortality
Apis mellifera = conditions: acute, mortality
Daphnia magna = conditions: chronic/long-term; duration: 21 days; mobility
Pimephales promelas = conditions: chronic/long-term; duration: 35 days; body weight
Canidae = conditions: chronic; duration: 1 years; oral; diet; Dog Other; histopathology: nonneoplastic

Structure (SMILES) | NOEC (Tagia sp.) [mg/kg] | NOEC (Folsomia candida) [mg/kg] | LC50 (Cyprinus carpio) [µg/mL] | LR50 (Typhlodromus pyri) [g/ha] | LC50 (Tagia sp.; acute, duration: 14 days, mortality) [mg/kg] | NOAEL (Rattus norvegicus; acute, oral, F, clinical signs) [mg/kg-day] | LD50 (Rattus norvegicus; acute, oral, mortality) [mg/kg-day] | NOAEL (Rattus norvegicus; chronic, duration: 2 years, oral, diet, histopathology: nonneoplastic) [mg/kg-day] | NOAEL (Rattus norvegicus; reproduction developmental, M, body weight) [mg/kg-day] | LD50 (Colinus virginianus; diet) [mg/kg-day] | LD50 (Colinus virginianus) [mg/kg-day] | LD50 (Apis mellifera; duration: 48 hours, dermal) [µg/piece] | LD50 (Apis mellifera; oral, unspecified) [µg/piece] | NOEC (Daphnia magna) [mg/L] | NOEC (Pimephales promelas) [µg/L] | NOAEL (Canidae) [mg/kg-day]
CC(=O)c1ccccc1NC(=O)c1c(C)nn(C)c1F | 500 | 1000 | > 0.799 | – | – | – | – | – | – | – | – | – | – | – | – | –
Cc1nn(C)c(F)c1C(=O)Nc1ccccc1C(C)CC(C)(C)O (configuration not stated) | 1000 | 1000 | > 15.7 | – | – | – | – | – | – | – | – | – | – | – | – | –
Cc1nn(C)c(F)c1C(=O)Nc1ccccc1C(C)CC(C)C (configuration not stated) [Penflufen] | 33 | 231 | 0.103 (≈ 0.325 µM) | > 250 | > 1000 | 50 | > 2000 | 4 | 58 | > 1700 | > 4000 | > 100 | > 105 | 1.53 | 23.4 | 7.7

— EPA's ToxValDB 9.5 (doi:10.2903/j.efsa.2016.4604)
